Test results published in ChEMBL document CHEMBL2073806, “Effect of PCB-126 on intracellular accumulation and transepithelial transport of vinblastine in LLC-PK1 and its transformant cells expressing human P-glycoprotein” (J Vet Med Sci, 2004).

Biological target: ATP-dependent translocase ABCB1 (Homo sapiens, UniProt P08183)
Experiment: TP_TRANSPORTER: transepithelial transport (basal to apical) in LLC-MDR1 cells
Format: functional, cell-based
Conditions: pig

ATP-dependent translocase ABCB1, sequence (P08183 whole entry): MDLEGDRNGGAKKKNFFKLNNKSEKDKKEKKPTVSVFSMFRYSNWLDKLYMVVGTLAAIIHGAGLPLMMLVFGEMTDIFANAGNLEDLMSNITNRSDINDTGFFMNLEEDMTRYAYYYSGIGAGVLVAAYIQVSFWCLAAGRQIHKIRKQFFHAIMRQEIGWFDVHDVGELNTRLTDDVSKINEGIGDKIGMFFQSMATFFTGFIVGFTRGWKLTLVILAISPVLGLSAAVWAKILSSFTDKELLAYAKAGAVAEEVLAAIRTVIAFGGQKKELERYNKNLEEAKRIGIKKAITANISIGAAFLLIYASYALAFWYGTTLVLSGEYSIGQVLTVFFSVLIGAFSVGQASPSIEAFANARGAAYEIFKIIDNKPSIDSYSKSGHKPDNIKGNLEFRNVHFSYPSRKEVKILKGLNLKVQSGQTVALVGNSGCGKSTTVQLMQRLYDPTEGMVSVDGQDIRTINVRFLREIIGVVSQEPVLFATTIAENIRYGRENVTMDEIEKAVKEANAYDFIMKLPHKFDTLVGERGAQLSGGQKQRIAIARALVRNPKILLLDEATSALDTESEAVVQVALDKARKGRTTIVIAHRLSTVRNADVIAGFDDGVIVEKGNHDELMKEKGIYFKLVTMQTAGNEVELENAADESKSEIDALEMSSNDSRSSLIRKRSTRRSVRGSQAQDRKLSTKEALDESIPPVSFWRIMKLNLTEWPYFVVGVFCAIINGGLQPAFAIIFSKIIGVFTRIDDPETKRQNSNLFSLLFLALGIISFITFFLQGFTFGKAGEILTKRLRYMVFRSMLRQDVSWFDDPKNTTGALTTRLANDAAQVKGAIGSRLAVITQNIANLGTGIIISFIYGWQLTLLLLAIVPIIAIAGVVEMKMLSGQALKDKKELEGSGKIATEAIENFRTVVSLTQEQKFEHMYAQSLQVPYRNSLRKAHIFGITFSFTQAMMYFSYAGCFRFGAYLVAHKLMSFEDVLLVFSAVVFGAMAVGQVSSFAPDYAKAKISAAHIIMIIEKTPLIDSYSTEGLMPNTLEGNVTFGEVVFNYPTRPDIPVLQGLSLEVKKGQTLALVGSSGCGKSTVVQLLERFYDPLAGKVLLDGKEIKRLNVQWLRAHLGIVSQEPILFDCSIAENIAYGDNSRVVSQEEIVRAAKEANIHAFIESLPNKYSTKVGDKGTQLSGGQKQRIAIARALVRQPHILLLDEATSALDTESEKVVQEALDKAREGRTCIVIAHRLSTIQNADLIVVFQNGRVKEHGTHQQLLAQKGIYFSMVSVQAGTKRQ

In the case of `Clc1ccc(-c2cc(Cl)c(Cl)c(Cl)c2)cc1Cl` [POLYCHLORINATED BIPHENYL 126], the Activity is reported as “substrate [+]”.
